Patent US7691965B2, “Helical synthetic peptides that stimulate cellular cholesterol efflux” (The Regents of the University of California, priority 2002, dated 2010)
Where a SMILES comes first, the peptide text is derived from it.

What was measured:
[1] = Relative lipid binding affinity by surface balance technique (monolayer exclusion pressure); type: physicochemical; conditions: for Monolayer exclusion pressure: surface balance technique
From the text: (§1) Relative Lipid Binding Affinity, Hydrophobicity, and Amphiphilicity of Synthetic Peptides—In some experiments, the relative lipid binding affinity of unique peptides was quantified using a surface balance technique (Gillotte, K L. et al., J. Biol. Chem., 274:2021-2028 (1999)). For routine analyses, a turbid solution of dimyristoylphosphatidylcholine (DMPC) was used to assess the relative capacity of synthetic peptides to solubilize phospholipid as described (Palgunachari, M. N. et al., Arterioscler. Thromb. Vasc. Biol., 16:328-338 (1996); McLean, L. R. and Hagaman, K. A., Biochim. Biophys. Acta, 1167:289-295 (1993)). The DMPC was used at a final concentration of 0.08 mg/ml in 10 mM Tris-saline (pH 7.4). The final weight ratio of peptides relative to DMPC was 1:1. The absorbance (400 nm) of samples was monitored continuously over a period of 30 min at 25° C. Hydrophobicity of helical peptides was calculated using the consensus scale (Eisenberg D., Annu. Rev. Biochem., 53:593-623 (1984)). The hydrophobic moment (kcal/mol) of synthetic peptides, which is a measure of helix amphiphilicity, was calculated as described by Eisenberg et al. (Eisenberg, D. et al., Nature, 299:371-374 (1982)).

[2] = DMPC clearance assay (solubilization of a turbid phospholipid solution); type: physicochemical
From the text: as §1, with “Peptides-In” for “Peptides—In”, “[…].,” for “Hagaman, K. A.,”

ABCA1 [3] = molecular target: T1, ABCA1 (Mus musculus, UniProt P41233); assay: Cellular cholesterol efflux from [3H]cholesterol-labeled J774 macrophages with and without cAMP analog; type: cell-based; parameters: endogenous in cells; host or cells: J774 macrophages treated with a cAMP analog (CPT-cAMP or 8-bromo-cAMP); conditions: for concentration at which cholesterol efflux reached maximal levels: cAMP-treated J774 cells; for ABCA1-dependent cholesterol efflux (result in words): lipid-free acceptor, J774 macrophages with vs without cAMP analog
From the text: Suitable cholesterol efflux assays are described in, e.g., Bielicki, J. K and Oda, M. N., Biochemistry, 41:2089-2096 (2002); Jia, Z. et al., Biochem. Biophys. Res. Common., 297:206-213 (2002). In some embodiments, a polypeptide known to mediate cholesterol efflux (e.g., helix 9/10 of Apo A-I) is used to screen for additional mediators of cholesterol efflux in a cell based assay. For example, cell lines in which cholesterol efflux can be enhanced using a cAMP analog that up-regulates ABCA1 protein expression (e.g., J774 macrophages) can conveniently be used to assess the ability of an Apo A-I, Apo A-II, Apo A-IV, Apo E, Apo C-I, Apo C-II, Apo C-III, or Serum Amyloid A peptide to mediate cholesterol efflux. The cells are incubated with labeled cholesterol (e.g., [^3H]cholesterol) under conditions appropriate for cholesterol uptake by the cells. cAMP or cAMP analogs (e.g., CPT-cAMP) is incubated with the cells for a suitable time before the initiation of cellular cholesterol efflux, i.e., prior to contacting the cells with helix 9/10 of Apo A-I or the test compound. Measurement of labeled cholesterol appearing in the medium is used to determine the cholesterol efflux mediating activity of the test compound.
Cellular Cholesterol Efflux Protocol—J774 macrophages were used to assess the cholesterol efflux properties of synthetic amphipathic α-helical peptides (Bielicki, J. K and Oda, M. N., Biochemistry, 41:2089-2096 (2002); Jia, Z. et al., Biochem. Biophys. Res. Common., 297:206-213 (2002)). This cell line was chosen because cholesterol efflux can be enhanced using a cAMP analog that up-regulates ABCA1 protein expression. The cells were seeded onto 24-well culture plates and labeled for 48 h with [^3H]cholesterol in RPMI 1640 supplemented with 1% fetal bovine serum. The cAMP analog CPT-cAMP was added (0.3 mM, final concentration) to the cells at least 12 h before the initiation of cellular cholesterol efflux. Synthetic peptides in lipid-free form were added to cells in serum-free RPMI. The lipid-free form of full-length recombinant apoA-I was used as a positive control to define apparent ABCA1-dependent cholesterol efflux in the presence and absence of cAMP stimulation. Efflux results were expressed as a percentage of the initial cellular [^3H] appearing in the medium as a function of time subtracting the background efflux obtained using serum-free medium alone.

ABCA1 [4] = molecular target: T1, ABCA1; assay: ABCA1 stabilization: immunoblot of ABCA1 protein in J774 macrophage membranes after cAMP withdrawal; type: cell-based; parameters: J774 macrophages were used to assess relative ABCA1 protein levels in the presence and absence of synthetic peptides; endogenous in cells; host or cells: J774 macrophages treated with a cAMP analog (CPT-cAMP or 8-bromo-cAMP); conditions: 20 μg/ml peptide, 6 h without cAMP, J774 macrophages
Description: J774 macrophages were incubated (18 h) with 0.5 mM 8-bromo-cAMP in medium containing 0.1% bovine serum albumin to up-regulate ABCA1 protein expression. Washed cells were subsequently exposed for 6 h to bovine serum albumin medium with (+) or without (−) 8-bromo-cAMP and the indicated synthetic peptides (20 μg/ml). None refers to no peptides. The cellular membrane content of ABCA1 protein was measured by immunoblot analysis.
ABCA1 Stabilization—J774 macrophages were used to assess relative ABCA1 protein levels in the presence and absence of synthetic peptides. Cells were grown in 10% fetal bovine serum, extensively rinsed, and incubated (18 h) with Dulbecco's modified Eagle's medium containing 0.1% bovine serum albumin plus the cAMP analog 8-bromo-cAMP. Cells were next exposed to synthetic peptides or serum-free medium in the absence of the cAMP stimulus to evaluate whether ABCA1 protein was stabilized or degraded. Relative levels of ABCA1 protein were assessed by immunoblot analysis of cell membranes (Oram, J. F. et al., J. Biol. Chem., 278:52379-52385 (2003)). ABCA1 was visualized using an enhanced chemiluminescence detection assay.
To assess ABCA1 stabilization, J774 macrophages were treated with a cAMP analog to up-regulate ABCA1 protein expression and then incubated for 6 h without cAMP. In the absence of inducer, ABCA1 protein is rapidly degraded in these cells (FIG. 9). […] Thus, it appears that the helical combinations that stimulate cholesterol efflux also stabilize the ABCA1 transporter.

ABCA1 [5] = molecular target: T1, ABCA1; assay: as above; type: cell-based; parameters: J774 macrophages were used to assess relative ABCA1 protein levels in the presence and absence of synthetic peptides; endogenous in cells; host or cells: J774 macrophages treated with a cAMP analog (CPT-cAMP or 8-bromo-cAMP); conditions: concentration dependence studies, J774 macrophages

T1 sequence (P41233 whole entry): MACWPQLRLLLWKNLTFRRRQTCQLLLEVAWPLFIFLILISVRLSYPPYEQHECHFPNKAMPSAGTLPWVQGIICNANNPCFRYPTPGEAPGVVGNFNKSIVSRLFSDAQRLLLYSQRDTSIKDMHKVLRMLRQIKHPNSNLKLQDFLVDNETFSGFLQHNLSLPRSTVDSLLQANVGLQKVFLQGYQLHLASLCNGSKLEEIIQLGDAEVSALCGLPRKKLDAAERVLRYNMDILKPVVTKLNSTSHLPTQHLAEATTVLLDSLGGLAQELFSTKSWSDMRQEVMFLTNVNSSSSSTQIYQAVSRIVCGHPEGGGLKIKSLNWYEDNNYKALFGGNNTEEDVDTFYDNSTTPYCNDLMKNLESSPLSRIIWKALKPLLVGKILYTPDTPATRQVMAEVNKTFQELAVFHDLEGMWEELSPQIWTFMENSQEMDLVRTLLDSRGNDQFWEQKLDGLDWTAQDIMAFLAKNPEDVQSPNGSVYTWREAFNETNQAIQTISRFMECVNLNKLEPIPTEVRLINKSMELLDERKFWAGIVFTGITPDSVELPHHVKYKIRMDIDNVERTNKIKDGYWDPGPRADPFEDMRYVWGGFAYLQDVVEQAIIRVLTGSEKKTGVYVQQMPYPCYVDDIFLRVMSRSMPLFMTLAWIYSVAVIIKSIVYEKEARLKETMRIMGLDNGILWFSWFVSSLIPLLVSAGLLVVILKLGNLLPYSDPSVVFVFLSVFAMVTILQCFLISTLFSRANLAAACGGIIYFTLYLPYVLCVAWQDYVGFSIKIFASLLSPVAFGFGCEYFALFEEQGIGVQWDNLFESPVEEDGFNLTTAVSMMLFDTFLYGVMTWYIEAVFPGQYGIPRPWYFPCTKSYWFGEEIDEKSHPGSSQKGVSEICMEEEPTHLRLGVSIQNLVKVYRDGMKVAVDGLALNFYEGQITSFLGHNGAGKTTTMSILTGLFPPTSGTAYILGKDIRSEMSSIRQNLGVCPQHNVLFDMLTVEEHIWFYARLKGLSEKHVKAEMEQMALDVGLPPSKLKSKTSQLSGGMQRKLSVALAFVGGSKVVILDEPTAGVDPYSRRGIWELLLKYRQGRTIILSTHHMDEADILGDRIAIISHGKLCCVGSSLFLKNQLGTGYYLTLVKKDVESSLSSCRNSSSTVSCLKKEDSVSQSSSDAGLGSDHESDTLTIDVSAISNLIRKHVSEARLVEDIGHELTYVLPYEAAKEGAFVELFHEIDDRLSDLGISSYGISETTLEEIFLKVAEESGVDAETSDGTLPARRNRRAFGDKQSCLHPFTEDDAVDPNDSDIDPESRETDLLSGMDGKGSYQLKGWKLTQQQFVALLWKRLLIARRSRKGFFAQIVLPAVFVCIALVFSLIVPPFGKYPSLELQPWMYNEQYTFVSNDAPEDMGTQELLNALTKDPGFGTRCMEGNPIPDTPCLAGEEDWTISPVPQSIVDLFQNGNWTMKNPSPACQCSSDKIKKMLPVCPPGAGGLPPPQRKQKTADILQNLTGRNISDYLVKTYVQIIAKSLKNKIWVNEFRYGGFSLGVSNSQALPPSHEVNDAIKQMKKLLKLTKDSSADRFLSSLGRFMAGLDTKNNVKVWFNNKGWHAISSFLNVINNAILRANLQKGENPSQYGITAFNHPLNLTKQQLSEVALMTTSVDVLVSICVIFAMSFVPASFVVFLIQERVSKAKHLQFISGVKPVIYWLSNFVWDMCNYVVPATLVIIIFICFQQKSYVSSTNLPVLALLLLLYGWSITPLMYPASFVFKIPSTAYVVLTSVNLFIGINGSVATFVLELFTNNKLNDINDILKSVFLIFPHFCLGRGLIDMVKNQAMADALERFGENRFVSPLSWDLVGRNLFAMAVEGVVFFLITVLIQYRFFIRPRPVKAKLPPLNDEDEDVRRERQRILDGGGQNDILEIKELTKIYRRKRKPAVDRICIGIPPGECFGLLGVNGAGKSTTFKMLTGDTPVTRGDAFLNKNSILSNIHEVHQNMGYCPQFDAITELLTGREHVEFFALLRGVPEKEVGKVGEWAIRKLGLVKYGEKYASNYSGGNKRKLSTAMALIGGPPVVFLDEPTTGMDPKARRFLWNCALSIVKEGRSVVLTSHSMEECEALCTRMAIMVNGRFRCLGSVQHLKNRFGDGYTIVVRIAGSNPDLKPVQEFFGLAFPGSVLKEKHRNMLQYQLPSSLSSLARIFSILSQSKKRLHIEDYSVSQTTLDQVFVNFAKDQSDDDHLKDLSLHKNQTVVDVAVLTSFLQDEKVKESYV

Structure (SMILES) | lipid binding affinity (surface balance technique), result in words [1] | Monolayer exclusion pressure [1] | DMPC clearance [2] | concentration at which cholesterol efflux reached maximal levels (ABCA1 [3]) | ABCA1-dependent cholesterol efflux (result in words) (ABCA1 [3]) | ABCA1 stabilization (result in words) (ABCA1 [4]) | lowest concentration that prevented ABCA1 degradation (ABCA1 [5]) | potency in mediating ABCA1-dependent cholesterol efflux relative to the 1/9 chimera (ABCA1 [3]; FIGS. 2B versus 3C) | concentration giving maximal ABCA1 stabilization and cholesterol efflux (ABCA1 [3]; both ABCA1 stabilization and cholesterol efflux)
CC(=O)N[C@@H](CC(C)C)C(=O)N[C@@H](CCCCN)C(=O)N[C@@H](CC(C)C)C(=O)N[C@@H](CC(C)C)C(=O)N[C@@H](CC(=O)O)C(=O)N[C@@H](CC(N)=O)C(=O)N[C@@H](Cc1c[nH]c2ccccc12)C(=O)N[C@@H](CC(=O)O)C(=O)N[C@@H](CO)C(=O)N[C@H](C(=O)N[C@H](C(=O)N[C@@H](CO)C(=O)N[C@H](C(=O)N[C@@H](Cc1ccccc1)C(=O)N[C@@H](CO)C(=O)N[C@@H](CCCCN)C(=O)N[C@@H](CC(C)C)C(=O)N[C@@H](CCCNC(=N)N)C(=O)N[C@@H](CCC(=O)O)C(=O)N[C@@H](CCC(N)=O)C(=O)N[C@@H](CC(C)C)C(=O)NCC(=O)N1CCC[C@H]1C(=O)N[C@@H](C)C(=O)N[C@@H](CC(C)C)C(=O)N[C@@H](CCC(=O)O)C(=O)N[C@@H](CC(=O)O)C(=O)N[C@@H](CC(C)C)C(=O)N[C@@H](CCCNC(=N)N)C(=O)N[C@@H](CCC(N)=O)C(=O)NCC(=O)N[C@@H](CC(C)C)C(=O)N[C@@H](CC(C)C)C(N)=O)[C@@H](C)O)[C@@H](C)O)C(C)C [Helical peptide 1/9] (Ac-LKLLDNWDSVTSTFSKLREQLGPALEDLRQGLL-NH2) | identical | 31 dynes/cm | + | 50 µg/mL | stimulated cholesterol efflux in the absence and presence of CAMP stimulation similar to full-length apoA-I | stabilized cellular ABCA1 protein to levels comparable with those observed when cells were exposed continuously to cAMP | 10 µg/mL |  | 
CC(=O)N1CCC[C@H]1C(=O)N[C@@H](C)C(=O)N[C@@H](CC(C)C)C(=O)N[C@@H](CCC(=O)O)C(=O)N[C@@H](CC(=O)O)C(=O)N[C@@H](CC(C)C)C(=O)N[C@@H](CCCNC(=N)N)C(=O)N[C@@H](CCC(N)=O)C(=O)NCC(=O)N[C@@H](CC(C)C)C(=O)N[C@@H](CC(C)C)C(=O)N1CCC[C@H]1C(=O)N[C@H](C(=O)N[C@@H](CC(C)C)C(=O)N[C@@H](CCC(=O)O)C(=O)N[C@@H](CO)C(=O)N[C@@H](Cc1ccccc1)C(=O)N[C@@H](CCCCN)C(=O)N[C@H](C(=O)N[C@@H](CO)C(=O)N[C@@H](Cc1ccccc1)C(=O)N[C@@H](CC(C)C)C(=O)N[C@@H](CO)C(=O)N[C@@H](C)C(=O)N[C@@H](CC(C)C)C(=O)N[C@@H](CCC(=O)O)C(=O)N[C@@H](CCC(=O)O)C(=O)N[C@@H](Cc1ccc(O)cc1)C(=O)N[C@H](C(=O)N[C@@H](CCCCN)C(=O)N[C@@H](CCCCN)C(=O)N[C@@H](CC(C)C)C(=O)N[C@@H](CC(N)=O)C(N)=O)[C@@H](C)O)C(C)C)C(C)C [Helical peptide 9/10] (Ac-PALEDLRQGLLPVLESFKVSFLSALEEYTKKLN-NH2) |  | 36 dynes/cm | + | 25 µg/mL | stimulated cholesterol efflux in an ABCA1-dependent manner | stabilized cellular ABCA1 protein to levels comparable with those observed when cells were exposed continuously to cAMP | 10 µg/mL | 2 fold | 10 to 25 µg/mL
